Consider eight molecules from paper PMC3909116 (PLoS ONE, 2014).

Read-outs that look alike come from different tables or passages of the source.

One data set concerns M. tuberculosis. The note with it: against M. tuberculosis; cited from earlier work.
The subject of another data set is M. tuberculosis H37Rv. Format: in vivo.
A further data set in a line: in vivo. More on the design: species or system Balb/c mice. The note with it: male, Balb/c, mouse, po, 30 mg/kg. As to the method: Samples were analyzed by LC-MS.
(A) Mouse survival curves from maximum tolerated dose study. All mice (n = 5) received one dose daily 6 times weekly for 4 weeks. 80% aqueous propylene glycol, (vehicle control).
Half-life and sequential exposure time of drug in serum is critical for its in vivo efficacious activity.

What is called MIC is the smallest concentration in the dilution series that meets the test's criterion for growth inhibition. Turning to `C[C@]1(COc2ccc(N3CCC(Oc4ccc(OC(F)(F)F)cc4)CC3)cc2)Cn2cc([N+](=O)[O-])nc2O1` [Delamanid], in the data set on M. tuberculosis, the MIC was 0.006 to 0.024 µg/mL. As for `NNC(=O)c1ccncc1` [INH, isoniazid], the “reduction of M. tuberculosis bacterial load in the spleen” value in the data set on M. tuberculosis H37Rv (relative to counts at initiation of chemotherapy (4.26 log10), Balb/c mice, oral once daily 6 times per week for 4 weeks, ND-09759 30 mg/kg, INH 25 mg/kg, RMP 20 mg/kg) is on record as 0.38 log10. Further, the “reduction of M. tuberculosis bacterial load in the lung” value with M. tuberculosis H37Rv (relative to counts at initiation of chemotherapy (5.18 log10), Balb/c mice, oral once daily 6 times per week for 4 weeks, ND-09759 30 mg/kg, INH 25 mg/kg, RMP 20 mg/kg) is listed as 0.27 log10. Besides, the minimal inhibitory concentration (MIC) with M. tuberculosis was 0.3 µM. In the case of `CC(=O)NC[C@H]1CN(c2ccc(N3CCOCC3)c(F)c2)C(=O)O1` [Linezolid], the minimal inhibitory concentration (MIC) in the data set on M. tuberculosis was 0.25 to 1 µg/mL. A word on the AUC(0-t): it is exposure summed from dosing to a finite time, without extrapolation to infinity. A lower AUC(0-t) goes with less exposure. One may read the Cmax as the peak of the concentration-time curve. By half-life is commonly meant the time in which the quantity being followed falls by half. Read a low half-life as rapid decline. As to `Cc1ccn2c(C(=O)NCc3ccc(Oc4ccc(Cl)cc4)cc3)c(C)nc2c1` [ND-09759, N-(4-(4-chlorophenoxy)benzyl)-2,7-dimethylimidazo[1,2-a]pyridine-3-carboxamide], in the data set “in vivo”, the AUC(0-t) is 22200 ng·h/mL, the concentration peaked (Cmax) at 2900 ng/mL and the half-life was 20.1 h. For the molecule `O=[N+]([O-])c1cn2c(n1)OC[C@@H](OCc1ccc(OC(F)(F)F)cc1)C2` [PA-824], the minimal inhibitory concentration (MIC) in the data set on M. tuberculosis is 0.015 to 0.25 µg/mL.

As for `CO[C@H]1/C=C/O[C@@]2(C)Oc3c(C)c(O)c4c(O)c(c(/C=N/N5CCN(C)CC5)c(O)c4c3C2=O)NC(=O)/C(C)=C\C=C\[C@H](C)[C@H](O)[C@@H](C)[C@@H](O)[C@@H](C)[C@H](OC(C)=O)[C@@H]1C` [RMP, rifampicin], in the data set with M. tuberculosis H37Rv (in vivo), the “reduction of M. tuberculosis bacterial load in the lung” value is given as 0.23 log10 and the “reduction of M. tuberculosis bacterial load in the spleen” value is 0.35 log10. Besides, the minimal inhibitory concentration (MIC) in the data set on M. tuberculosis is given as 0.003 µM. On to `CC(C)=CCC/C(C)=C/CNCCNC1C2CC3CC(C2)CC1C3` (centres unmarked) [SQ109], for which the MIC in the data set on M. tuberculosis is 0.7 to 1.56 µM. On to `COc1nc2ccc(Br)cc2cc1[C@@H](c1ccccc1)[C@@](O)(CCN(C)C)c1cccc2ccccc12` [TMC 207], for which the MIC in the data set on M. tuberculosis is 0.030−0.120 µg/ml.
